Laboratory results reported in patent US11453660B2, “Androgen receptor and glucocorticoid receptor modulators” (ONCOSTELLAE, S.L., priority 2017, dated 2022).

What follows are compounds tested against T1, Human Glucocorticoid Receptor (Homo sapiens, UniProt P04150) (assay: Competition Binding in IM-9 Human Glucocorticoid Receptor (GR IM-9)). Conditions: cytosol from IM-9 cell line, 1.5 nM [3H]-Dexamethasone, 4° C. for 6 hours.
T1 construct: endogenous in cells; host or cells: cytosol from IM-9 cell line
T1 sequence (P04150 1-777): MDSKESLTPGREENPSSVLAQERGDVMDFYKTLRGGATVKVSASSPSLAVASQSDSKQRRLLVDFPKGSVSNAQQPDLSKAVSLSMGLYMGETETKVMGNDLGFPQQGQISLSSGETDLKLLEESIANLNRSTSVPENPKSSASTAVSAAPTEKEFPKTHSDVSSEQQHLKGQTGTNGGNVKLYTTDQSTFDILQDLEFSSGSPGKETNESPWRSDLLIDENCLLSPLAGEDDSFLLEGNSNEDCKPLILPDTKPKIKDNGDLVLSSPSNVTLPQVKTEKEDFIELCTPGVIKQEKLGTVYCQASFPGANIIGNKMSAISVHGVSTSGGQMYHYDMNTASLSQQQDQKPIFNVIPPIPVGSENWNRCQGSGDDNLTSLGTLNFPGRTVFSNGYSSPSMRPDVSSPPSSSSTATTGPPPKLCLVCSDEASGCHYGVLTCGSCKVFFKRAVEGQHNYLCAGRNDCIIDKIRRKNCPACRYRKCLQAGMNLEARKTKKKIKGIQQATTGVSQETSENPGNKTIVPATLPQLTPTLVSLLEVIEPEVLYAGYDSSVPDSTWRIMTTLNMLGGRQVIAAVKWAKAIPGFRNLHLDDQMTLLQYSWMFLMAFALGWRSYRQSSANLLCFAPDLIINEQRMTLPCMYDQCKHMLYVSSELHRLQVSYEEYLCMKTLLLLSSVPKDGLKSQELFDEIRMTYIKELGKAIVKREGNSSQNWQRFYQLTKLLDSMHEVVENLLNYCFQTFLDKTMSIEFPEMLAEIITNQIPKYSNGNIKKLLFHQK
Method: Competition Binding in IM-9 Human Glucocorticoid Receptor (GR IM-9)
Glucocorticoid receptor competition binding assays were carried out in a polypropilene 96-well plate. In each well was incubated 100 μg of cytosol from IM-9 cell line, 1.5 nM [3H]-Dexamethasone (71 Ci/mmol, 1 mCi/ml, Perkin Elmer NET1192001MC) and compounds studied and standard. Non-specific binding was determined in the presence of Triamcinolone 10 μM (Sigma Aldrich T6376).
The reaction mixture (Vt: 200 μl/well) was incubated at 4° C. for 6 hours, 180 μL was transferred to GF/B 96-well plate (Millipore, Madrid, Spain) pretreated with 0.5% of PEI and treated with binding buffer (TES 10 mM, sodium molybdate 10 mM, EDTA 1 mM, pH 7.4, 2-mercaptoethanol 20 mM, Glycerol 10%) after was filtered and washed six times with 250 μl wash buffer (TES 10 mM, sodium molybdate 10 mM, EDTA 1 mM, pH 7.4, 2-mercaptoethanol 20 mM Glycerol 10%), before measuring in a microplate beta scintillation counter (Microbeta Trilux, PerkinElmer, Madrid, Spain).

| Structure (SMILES) | IC50 [nM] |
| --- | --- |
| CC(=O)C1=C(C)NC(C)=C(C(=O)OCc2ccncc2F)C1c1csc2ncccc12 (stereo not drawn) [Example C68, (3-fluoropyridin-4-yl)methyl 5-acetyl-2,6-dimethyl-4-(thieno[2,3-b]pyridin-3-yl)-1,4-dihydropyridine-3-carboxylate] | ≥ 1000 |
| CC(=O)C1=C(C)NC(C)=C(C(=O)OCc2ccnc(Cl)c2)C1c1csc2ncccc12 (stereo not drawn) [Example C77, (2-chloropyridin-4-yl)methyl 5-acetyl-2,6-dimethyl-4-(thieno[2,3-b]pyridin-3-yl)-1,4-dihydropyridine-3-carboxylate] | 100 to 1000 |
| CC(=O)C1=C(C)NC(C2CC2)=C(C(=O)OC2COC2)C1c1csc2c(Br)cccc12 (stereo not drawn) [Example C81, Oxetan-3-yl 5-acetyl-4-(7-bromobenzo[b]thiophen-3-yl)-2-cyclopropyl-6-methyl-1,4-dihydropyridine-3-carboxylate] | < 100 |
| CC(=O)C1=C(C)NC(C2CC2)=C(C(=O)OC(C)C)C1c1csc2c(Br)cccc12 (stereo not drawn) [Example C82, Isopropyl 5-acetyl-4-(7-bromobenzo[b]thiophen-3-yl)-2-cyclopropyl-6-methyl-1,4-dihydropyridine-3-carboxylate] | < 100 |
| COC(=O)C1=C(C(F)(F)F)NC(C)=C(C(C)=O)C1c1csc2c(Br)cccc12 (stereo not drawn) [Example C83, Methyl 5-acetyl-4-(7-bromobenzo[b]thiophen-3-yl)-6-methyl-2-(trifluoromethyl)-1,4-dihydropyridine-3-carboxylate] | 100 to 1000 |
| CC(=O)C1=C(C)NC(C2CC2)=C(C(=O)OCC2CC2)C1c1csc2c(Br)cccc12 (stereo not drawn) [Example C84, Cyclopropylmethyl 5-acetyl-4-(7-bromobenzo[b]thiophen-3-yl)-2-cyclopropyl-6-methyl-1,4-dihydropyridine-3-carboxylate] | < 100 |
| COC(=O)C1=C(C2CC2)NC(C)=C(C(C)=O)C1c1csc2c(C(=O)C(F)(F)F)cccc12 (stereo not drawn) [Example C85, Methyl 5-acetyl-2-cyclopropyl-6-methyl-4-(7-(2,2,2-trifluoroacetyl)benzo[b]thiophen-3-yl)-1,4-dihydropyridine-3-carboxylate] | ≥ 1000 |
| CC(=O)C1=C(C)NC(C2CC2)=C(C(=O)C2CC2)C1c1csc2c(Br)cccc12 (stereo not drawn) [Example C93, 1-(4-(7-Bromobenzo[b]thiophen-3-yl)-5-(cyclopropanecarbonyl)-6-cyclopropyl-2-methyl-1,4-dihydropyridin-3-yl)ethan-1-one] | 100 to 1000 |
| CC(=O)C1=C(C)NC(C2CC2)=C(C(=O)OCC2CC2)C1c1csc2c(C#N)cccc12 (stereo not drawn) [Example C101, Cyclopropylmethyl 5-acetyl-4-(7-cyanobenzo[b]thiophen-3-yl)-2-cyclopropyl-6-methyl-1,4-dihydropyridine-3-carboxylate] | < 100 |
| COC(=O)C1=C(C2CCC2)NC(C)=C(C(C)=O)C1c1csc2c(Br)cccc12 (stereo not drawn) [Example C102, Methyl 5-acetyl-4-(7-bromobenzo[b]thiophen-3-yl)-2-cyclobutyl-6-methyl-1,4-dihydropyridine-3-carboxylate] | 100 to 1000 |
| COC(=O)C1=C(C)NC(C2CC2)=C(C(=O)OC)C1c1csc2c(C#N)cccc12 (stereo not drawn) [Example C103, Dimethyl 4-(7-cyanobenzo[b]thiophen-3-yl)-2-cyclopropyl-6-methyl-1,4-dihydropyridine-3,5-dicarboxylate] | < 100 |
| COC(=O)C1=C(C2CC2)NC(C)=C(C#N)C1c1csc2c(C#N)cccc12 (stereo not drawn) [Example C104, Methyl 5-cyano-4-(7-cyanobenzo[b]thiophen-3-yl)-2-cyclopropyl-6-methyl-1,4-dihydropyridine-3-carboxylate] | < 100 |
| COC(=O)C1=C(C2CCCC2)NC(C)=C(C(C)=O)C1c1csc2c(Br)cccc12 (stereo not drawn) [Example C105, Methyl 5-acetyl-4-(7-bromobenzo[b]thiophen-3-yl)-2-cyclopentyl-6-methyl-1,4-dihydropyridine-3-carboxylate] | 100 to 1000 |
| COC(=O)C1=C(C2CCCCC2)NC(C)=C(C(C)=O)C1c1csc2c(Br)cccc12 (stereo not drawn) [Example C106, Methyl 5-acetyl-4-(7-bromobenzo[b]thiophen-3-yl)-2-cyclohexyl-6-methyl-1,4-dihydropyridine-3-carboxylate] | 100 to 1000 |
| COC(=O)C1=C(C)NC(C2CC2)=C(C(=O)OCC2CC2)C1c1csc2c(C#N)cccc12 (stereo not drawn) [Example C109, 3-(cyclopropylmethyl) 5-methyl 4-(7-cyanobenzo[b]thiophen-3-yl)-2-cyclopropyl-6-methyl-1,4-dihydropyridine-3,5-dicarboxylate] | < 100 |
| COC(=O)C1=C(C2CC2)NC(C2CC2)=C(C(=O)OCC2CC2)C1c1csc2c(C#N)cccc12 (stereo not drawn) [Example C110, 3-(cyclopropylmethyl) 5-methyl 4-(7-cyanobenzo[b]thiophen-3-yl)-2,6-dicyclopropyl-1,4-dihydropyridine-3,5-dicarboxylate] | < 100 |
| CC1=C(C#N)C(c2csc3c(C#N)cccc23)C(C(=O)OCC2CC2)=C(C2CC2)N1 (stereo not drawn) [Example C111, Cyclopropylmethyl 5-cyano-4-(7-cyanobenzo[b]thiophen-3-yl)-2-cyclopropyl-6-methyl-1,4-dihydropyridine-3-carboxylate] | < 100 |

Second part, the compound after the results:

| IC50 [nM] | Structure (SMILES) |
| --- | --- |
| 100 to 1000 | CC(=O)C1=C(C)NC(C)=C(C(=O)OC(C)(C)c2ccccc2)C1c1csc2c(Br)cccc12 (stereo not drawn) [Example C86, 2-phenylpropan-2-yl 5-acetyl-4-(7-bromobenzo[b]thiophen-3-yl)-2,6-dimethyl-1,4-dihydropyridine-3-carboxylate] |
| < 100 | CC(=O)C1=C(C)NC(C2CC2)=C(C(=O)OC2CCCCC2)C1c1csc2ncccc12 (stereo not drawn) [Example C91, Cyclohexyl 5-acetyl-2-cyclopropyl-6-methyl-4-(thieno[2,3-b]pyridin-3-yl)-1,4-dihydropyridine-3-carboxylate] |
| < 100 | CC(=O)C1=C(C)NC(C2CC2)=C(C(=O)OC(C)(C)c2ccccc2)C1c1csc2ncccc12 (stereo not drawn) [Example C92, 2-phenylpropan-2-yl 5-acetyl-2-cyclopropyl-6-methyl-4-(thieno[2,3-b]pyridin-3-yl)-1,4-dihydropyridine-3-carboxylate] |
| < 100 | CC(=O)C1=C(C)NC(C2CC2)=C(C(=O)OCc2cccc(Cl)c2)C1c1csc2ncccc12 (stereo not drawn) [Example C94, 3-chlorobenzyl 5-acetyl-2-cyclopropyl-6-methyl-4-(thieno[2,3-b]pyridin-3-yl)-1,4-dihydropyridine-3-carboxylate] |
| < 100 | CC(=O)C1=C(C)NC(C)=C(C(=O)OC(C)(C)c2ccc(F)cc2)C1c1csc2ncccc12 (stereo not drawn) [Example C95, 2-(4-fluorophenyl)propan-2-yl 5-acetyl-2,6-dimethyl-4-(thieno[2,3-b]pyridin-3-yl)-1,4-dihydropyridine-3-carboxylate] |
| 100 to 1000 | CC(=O)C1=C(C)NC(C2CC2)=C(C(=O)OC(C)(C)c2ccc(F)cc2)C1c1csc2c(Br)cccc12 (stereo not drawn) [Example C96, 2-(4-fluorophenyl)propan-2-yl 5-acetyl-4-(7-bromobenzo[b]thiophen-3-yl)-2-cyclopropyl-6-methyl-1,4-dihydropyridine-3-carboxylate] |
| < 100 | CC(=O)C1=C(C)NC(C2CC2)=C(C(=O)OC(C)(C)c2ccc(F)cc2)C1c1csc2ncccc12 (stereo not drawn) [Example C97, 2-(4-fluorophenyl)propan-2-yl 5-acetyl-2-cyclopropyl-6-methyl-4-(thieno[2,3-b]pyridin-3-yl)-1,4-dihydropyridine-3-carboxylate] |
| 100 to 1000 | COC(=O)C1=C(C2CC2)NC(C)=C(C(C)=O)C1c1csc2c(F)cccc12 (stereo not drawn) [Example C98, Methyl 5-acetyl-2-cyclopropyl-4-(7-fluorobenzo[b]thiophen-3-yl)-6-methyl-1,4-dihydropyridine-3-carboxylate] |
| 100 to 1000 | CC(=O)C1=C(C)NC(C2CC2)=C(C(=O)OCC2CC2)C1c1csc2ncccc12 (stereo not drawn) [Example C99, Cyclopropylmethyl 5-acetyl-2-cyclopropyl-6-methyl-4-(thieno[2,3-b]pyridin-3-yl)-1,4-dihydropyridine-3-carboxylate] |
| < 100 | CC(=O)C1=C(C)NC(C2CC2)=C(C(=O)OC2CCCC2)C1c1csc2ncccc12 (stereo not drawn) [Example C100, Cyclopentyl 5-acetyl-2-cyclopropyl-6-methyl-4-(thieno[2,3-b]pyridin-3-yl)-1,4-dihydropyridine-3-carboxylate] |
